Key:
[1] = biological target: Disintegrin and metalloproteinase domain-containing protein 17 (Homo sapiens, UniProt P78536); test: Inhibition of TACE
[2] = biological target: T1, Disintegrin and metalloproteinase domain-containing protein 10 (Homo sapiens, UniProt O14672); test: Inhibition of ADAM10
T1 sequence (O14672 whole entry): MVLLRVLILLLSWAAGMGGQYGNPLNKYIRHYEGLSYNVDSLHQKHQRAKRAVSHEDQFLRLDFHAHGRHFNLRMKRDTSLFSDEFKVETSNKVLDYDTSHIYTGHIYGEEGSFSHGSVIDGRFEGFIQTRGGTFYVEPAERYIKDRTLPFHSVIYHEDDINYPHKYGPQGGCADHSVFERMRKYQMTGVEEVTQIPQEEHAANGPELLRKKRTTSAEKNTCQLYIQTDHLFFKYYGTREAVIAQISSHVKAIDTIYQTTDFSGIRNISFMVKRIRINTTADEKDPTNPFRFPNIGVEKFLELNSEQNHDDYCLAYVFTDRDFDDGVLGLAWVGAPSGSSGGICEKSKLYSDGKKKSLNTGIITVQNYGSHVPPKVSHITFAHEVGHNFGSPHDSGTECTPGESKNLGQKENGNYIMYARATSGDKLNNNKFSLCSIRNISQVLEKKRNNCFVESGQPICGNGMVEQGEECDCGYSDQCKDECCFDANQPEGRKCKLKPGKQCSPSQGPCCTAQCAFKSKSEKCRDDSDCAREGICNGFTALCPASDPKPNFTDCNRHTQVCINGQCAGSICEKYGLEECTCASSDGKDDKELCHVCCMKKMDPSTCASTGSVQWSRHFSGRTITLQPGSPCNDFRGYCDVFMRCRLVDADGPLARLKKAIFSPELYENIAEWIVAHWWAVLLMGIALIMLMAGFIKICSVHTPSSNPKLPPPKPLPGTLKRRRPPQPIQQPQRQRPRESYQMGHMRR

Interstitial collagenase = biological target: T2, Interstitial collagenase (Homo sapiens, UniProt P03956); test: Inhibition of MMP1
T2 sequence (P03956 whole entry): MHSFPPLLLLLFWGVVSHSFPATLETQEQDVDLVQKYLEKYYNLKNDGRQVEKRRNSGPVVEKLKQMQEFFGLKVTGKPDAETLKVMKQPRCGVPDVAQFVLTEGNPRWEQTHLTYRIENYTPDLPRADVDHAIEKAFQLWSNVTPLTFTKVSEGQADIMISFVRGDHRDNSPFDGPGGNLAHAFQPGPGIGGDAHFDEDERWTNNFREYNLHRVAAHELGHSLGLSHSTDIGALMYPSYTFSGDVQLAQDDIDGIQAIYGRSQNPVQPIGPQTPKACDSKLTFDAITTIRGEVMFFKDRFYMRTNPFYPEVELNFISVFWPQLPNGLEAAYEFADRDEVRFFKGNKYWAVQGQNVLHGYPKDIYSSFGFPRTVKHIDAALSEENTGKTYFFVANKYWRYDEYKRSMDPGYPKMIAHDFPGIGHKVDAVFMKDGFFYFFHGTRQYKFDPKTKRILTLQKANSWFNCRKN

[3] = biological target: 72 kDa type IV collagenase (Homo sapiens, UniProt P08253); test: Inhibition of MMP2
72 kDa type IV collagenase, sequence (P08253 whole entry): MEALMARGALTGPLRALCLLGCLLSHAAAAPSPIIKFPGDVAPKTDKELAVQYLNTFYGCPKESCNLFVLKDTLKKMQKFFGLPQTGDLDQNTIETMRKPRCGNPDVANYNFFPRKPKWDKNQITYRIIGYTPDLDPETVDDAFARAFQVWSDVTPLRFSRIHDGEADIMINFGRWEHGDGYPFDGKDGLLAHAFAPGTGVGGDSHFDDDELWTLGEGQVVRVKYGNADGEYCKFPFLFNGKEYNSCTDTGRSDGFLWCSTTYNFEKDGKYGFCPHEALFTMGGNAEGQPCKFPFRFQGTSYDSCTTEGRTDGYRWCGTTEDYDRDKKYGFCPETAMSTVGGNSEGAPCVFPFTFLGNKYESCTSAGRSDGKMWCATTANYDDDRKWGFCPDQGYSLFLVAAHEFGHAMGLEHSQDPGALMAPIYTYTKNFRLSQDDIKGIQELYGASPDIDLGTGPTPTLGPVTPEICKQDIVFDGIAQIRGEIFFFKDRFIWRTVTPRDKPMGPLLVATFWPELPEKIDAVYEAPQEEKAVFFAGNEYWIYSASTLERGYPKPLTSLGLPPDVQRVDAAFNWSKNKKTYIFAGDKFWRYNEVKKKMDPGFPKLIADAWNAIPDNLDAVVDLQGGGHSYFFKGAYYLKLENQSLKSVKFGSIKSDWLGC

Stromelysin-1 = Stromelysin-1 (Homo sapiens, UniProt P08254); test: Inhibition of MMP3
Stromelysin-1, sequence (P08254 whole entry): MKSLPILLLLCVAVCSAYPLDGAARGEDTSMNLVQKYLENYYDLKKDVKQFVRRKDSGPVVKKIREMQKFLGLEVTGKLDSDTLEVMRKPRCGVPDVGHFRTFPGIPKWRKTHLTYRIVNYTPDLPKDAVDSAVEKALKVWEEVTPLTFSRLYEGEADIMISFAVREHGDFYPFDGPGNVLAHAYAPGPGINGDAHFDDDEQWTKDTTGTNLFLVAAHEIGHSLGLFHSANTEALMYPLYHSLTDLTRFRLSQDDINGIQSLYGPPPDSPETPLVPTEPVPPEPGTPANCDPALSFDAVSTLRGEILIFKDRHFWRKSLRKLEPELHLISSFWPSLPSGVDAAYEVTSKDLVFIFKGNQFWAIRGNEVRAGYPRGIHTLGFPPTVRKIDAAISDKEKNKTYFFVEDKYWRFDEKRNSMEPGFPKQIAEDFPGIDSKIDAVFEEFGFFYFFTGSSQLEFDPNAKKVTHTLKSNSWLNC

Matrilysin = biological target: T3, Matrilysin (Homo sapiens, UniProt P09237); test: Inhibition of MMP7
T3 sequence (P09237 whole entry): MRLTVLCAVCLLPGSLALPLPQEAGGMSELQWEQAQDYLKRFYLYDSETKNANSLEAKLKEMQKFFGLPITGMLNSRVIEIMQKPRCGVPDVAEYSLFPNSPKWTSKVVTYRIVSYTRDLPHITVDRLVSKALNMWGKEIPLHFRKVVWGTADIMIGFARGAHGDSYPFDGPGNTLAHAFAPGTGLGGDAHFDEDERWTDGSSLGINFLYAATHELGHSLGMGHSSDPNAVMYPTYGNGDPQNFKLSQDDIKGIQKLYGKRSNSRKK

[4] = biological target: Macrophage metalloelastase (Homo sapiens, UniProt P39900); test: Inhibition of MMP12
Macrophage metalloelastase, sequence (P39900 whole entry): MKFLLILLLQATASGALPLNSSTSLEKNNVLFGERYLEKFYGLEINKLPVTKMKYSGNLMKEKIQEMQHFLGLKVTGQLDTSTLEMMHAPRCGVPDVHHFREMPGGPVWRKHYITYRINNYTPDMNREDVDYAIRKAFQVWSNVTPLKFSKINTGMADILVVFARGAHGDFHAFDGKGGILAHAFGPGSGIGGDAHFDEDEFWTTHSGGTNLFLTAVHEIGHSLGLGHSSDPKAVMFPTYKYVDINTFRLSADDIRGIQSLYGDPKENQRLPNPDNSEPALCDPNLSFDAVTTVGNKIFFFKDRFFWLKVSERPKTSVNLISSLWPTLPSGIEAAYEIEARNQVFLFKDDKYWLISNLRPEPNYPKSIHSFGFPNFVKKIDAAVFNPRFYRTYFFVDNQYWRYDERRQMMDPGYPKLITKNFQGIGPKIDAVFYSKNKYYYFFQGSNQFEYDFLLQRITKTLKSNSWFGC

Collagenase 3 = Collagenase 3 (Homo sapiens, UniProt P45452); test: Inhibition of MMP13
[5] = biological target: Matrix metalloproteinase-14 (Homo sapiens, UniProt P50281); test: Inhibition of MMP14

Disintegrin and metalloproteinase domain-containing protein 17, sequence (P78536 whole entry, the tested form may be a part): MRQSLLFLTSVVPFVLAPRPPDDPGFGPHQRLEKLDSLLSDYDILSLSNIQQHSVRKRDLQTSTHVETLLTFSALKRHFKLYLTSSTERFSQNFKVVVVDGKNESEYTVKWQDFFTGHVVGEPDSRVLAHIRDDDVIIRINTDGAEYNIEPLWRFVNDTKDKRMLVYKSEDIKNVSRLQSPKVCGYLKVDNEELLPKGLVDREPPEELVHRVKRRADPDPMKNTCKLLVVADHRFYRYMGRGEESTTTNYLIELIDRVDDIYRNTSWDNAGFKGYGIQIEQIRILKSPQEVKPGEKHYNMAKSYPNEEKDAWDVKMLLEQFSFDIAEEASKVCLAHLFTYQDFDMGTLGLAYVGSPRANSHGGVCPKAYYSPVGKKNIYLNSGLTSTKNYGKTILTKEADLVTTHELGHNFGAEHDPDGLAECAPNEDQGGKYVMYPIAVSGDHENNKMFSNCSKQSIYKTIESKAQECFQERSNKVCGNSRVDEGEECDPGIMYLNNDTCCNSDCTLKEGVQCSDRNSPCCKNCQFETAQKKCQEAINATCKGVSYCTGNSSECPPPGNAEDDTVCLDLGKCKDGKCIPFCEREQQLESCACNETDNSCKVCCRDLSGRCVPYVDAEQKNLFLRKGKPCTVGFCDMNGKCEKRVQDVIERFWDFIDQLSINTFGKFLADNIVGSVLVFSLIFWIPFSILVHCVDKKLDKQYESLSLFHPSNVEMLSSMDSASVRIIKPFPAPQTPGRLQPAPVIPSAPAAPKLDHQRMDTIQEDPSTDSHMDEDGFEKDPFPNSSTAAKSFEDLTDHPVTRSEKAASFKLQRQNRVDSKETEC

SMILES | Ki ([1]; read-out: Ki) [nM] | other results
O=C(NCCc1cccs1)[C@H](O)CC(=O)N1CCCC1c1cccc(Cl)c1 (some centres undefined) |  | Ki [1]: Not Active
O=C(NCCc1cccs1)[C@H](O)[C@@H](O)c1nccs1 | 5530 | 
O=C(NCCc1cccs1)[C@H](O)[C@@H](O)C(=O)N1CCCC1c1ccccc1Cl (some centres undefined) | 323 | 
O=C(NCCc1cccs1)[C@H](O)[C@@H](O)C(=O)N1CCCC1c1cccc(Cl)c1 (some centres undefined) | 11 | Ki [2]: 29 nM; Ki (Interstitial collagenase): > 50000 nM; Ki [3]: 33000 nM; Ki (Stromelysin-1): 17000 nM; Ki (Matrilysin): > 50000 nM; Ki [4]: > 50000 nM; Ki (Collagenase 3): 20000 nM; Ki [5]: 11000 nM
Cc1cccc(C2CCCN2C(=O)[C@H](O)[C@@H](O)C(=O)N(C)CCc2cccs2)c1 (some centres undefined) | 13 | 
COc1cccc(C2CCCN2C(=O)[C@H](O)[C@@H](O)C(=O)N(C)CCc2cccs2)c1 (some centres undefined) | 33 | 
O=C(NCc1cc(CC2C=CC=CC2Cl)cs1)[C@H](O)[C@@H](O)C(=O)N1CCC[C@@H]1c1cccc(Cl)c1 (some centres undefined) | 13 | 
O=C([C@H](O)[C@@H](O)C(=S)NCc1cc(Cc2ccccc2Cl)cs1)N1CCCC1c1cccc(Cl)c1 (some centres undefined) | 1110 | 
C[C@@H](c1ccccc1)N(C)C(=O)[C@H](O)[C@@H](O)C(=O)NCCc1cccs1 | 487 | 
CN(C)c1cccc(C2CCCN2C(=O)[C@H](O)[C@@H](O)C(=O)NCCc2cccs2)c1 (some centres undefined) | 41 | 
O=C(NCc1cc(Cc2ccccc2)cs1)[C@H](O)[C@@H](O)C(=O)N1CCCC1c1ccc(F)cc1 (some centres undefined) | 93 | 
O=C(NCCc1nc(Cc2ccccc2)cs1)[C@H](O)[C@@H](O)C(=O)N1CCCC1c1ccccc1 (some centres undefined) | 48 | 
O=C(NCc1cc2ccccc2o1)[C@H](O)[C@@H](O)C(=O)N1CCCC1c1ccccc1 (some centres undefined) | 160 | Ki [2]: 734 nM; Ki (Interstitial collagenase): 18700 nM; Ki [3]: 300 nM; Ki (Stromelysin-1): 7700 nM; Ki (Matrilysin): > 50000 nM; Ki (Collagenase 3): 510 nM; Ki [5]: 140 nM
O=C(NCc1nc(Cc2ccccc2)cs1)[C@H](O)[C@@H](O)C(=O)N1CCCC1c1ccccc1 (some centres undefined) | 8 | 
O=C(NCc1nc(Cc2ccccc2)co1)[C@H](O)[C@@H](O)C(=O)N1CCCC1c1ccccc1 (some centres undefined) | 22 | 
CN(Cc1ccccc1)C(=O)[C@H](O)[C@@H](O)C(=O)NCCc1cccs1 | 764 | 
CN(CCc1ccccc1)C(=O)[C@H](O)[C@@H](O)C(=O)NCCc1cccs1 | 1280 | 
C[C@H](c1ccccc1)N(C)C(=O)[C@H](O)[C@@H](O)C(=O)NCCc1cccs1 | 238 | 
O=C(NCCc1cccs1)[C@H](O)[C@@H](O)C(=O)N1CCCCC1c1ccccc1 (some centres undefined) | 325 | 
O=C(NCCc1cccs1)[C@H](O)[C@@H](O)C(=O)N1CCC(c2ccccc2)C1 (some centres undefined) | 456 | 
O=C(NCCc1cccs1)[C@H](O)[C@@H](O)C(=O)N1CCN(c2ccccn2)CC1 | 2500 | 
CN(C)C(=O)[C@H](O)[C@@H](O)C(=O)NCCc1cccs1 | 1300 | 

SMILES | Ki ([1]; read-out: Ki) [nM] | other results
CN(C(=O)[C@H](O)[C@@H](O)C(=O)NCCc1cccs1)C1CCCCC1 | 1400 | 
O=C(NCCc1cccs1)[C@H](O)[C@@H](O)C(=O)NCc1ccccc1 |  | Ki [1]: Not Active
O=C(NCCc1cccs1)[C@H](O)[C@@H](O)C(=O)N1CCC(Cc2ccccc2)CC1 | 1100 | 
O=C(NCCc1cccs1)[C@H](O)[C@@H](O)C(=O)N1CCc2ccccc2C1 | 91 | 
O=C(NCCc1cccs1)[C@H](O)[C@@H](O)C(=O)N1CCCC1c1nccs1 (some centres undefined) | 164 | 
COc1cccc(N2CCN(C(=O)[C@H](O)[C@@H](O)C(=O)NCCc3cccs3)CC2)c1 | 400 | 
O=C(NCCc1cccs1)[C@H](O)[C@@H](O)C(=O)N1CCCC1c1ccc(Cl)cc1 (some centres undefined) | 755 | 
CN(Cc1cccnc1)C(=O)[C@H](O)[C@@H](O)C(=O)NCCc1cccs1 | 943 | 
O=C(NCc1ccc(Cc2ccccc2)cc1)[C@H](O)[C@@H](O)C(=O)N1CCCC1c1cccc(Cl)c1 (some centres undefined) | 70 | 
O=C(C[C@@H](O)C(=O)N1CCCC1c1cccc(Cl)c1)NCCc1cccs1 (some centres undefined) |  | Ki [1]: Not Active
O=C(NCc1cc(Cc2ccccc2Cl)cs1)[C@H](O)[C@@H](O)C(=S)N1CCCC1c1cccc(Cl)c1 (some centres undefined) | 1520 | 
O=C(NCCc1cc(Cc2ccccc2)cs1)[C@H](O)[C@@H](O)C(=O)N1CCCC1c1ccccc1 (some centres undefined) | 66 | Ki [2]: > 25000 nM; Ki (Interstitial collagenase): > 50000 nM; Ki [3]: > 50000 nM; Ki (Matrilysin): 6000 nM; Ki [4]: 700 nM; Ki (Collagenase 3): 3600 nM; Ki [5]: > 30000 nM
Cn1ccnc1[C@H](O)[C@@H](O)C(=O)NCCc1cccs1 | 10600 | 
O=C(NCCc1cccs1)[C@H](O)[C@@H](O)C(=O)N1CCC[C@@H]1c1ccccc1 | 20 | 
O=C(NCCc1cccs1)[C@H](O)[C@@H](O)C(=O)N1Cc2ccccc2C1 | 66 | 
CN(CCc1cccs1)C(=O)[C@H](O)[C@@H](O)C(=O)N1CCN(c2ccccc2Cl)CC1 |  | Ki [1]: Not Active
CN(Cc1ccco1)C(=O)[C@H](O)[C@@H](O)C(=O)NCCc1cccs1 | 1020 | 
O=C(NCCc1cccs1)[C@H](O)[C@@H](O)C(=O)N1CCCC1c1ccccn1 (some centres undefined) | 188 | 
O=C(NCCc1cccs1)[C@H](O)[C@@H](O)C(=O)N1CCN(c2ccccc2Cl)CC1 | 400 | Ki [2]: 400 nM; Ki (Interstitial collagenase): > 90000 nM; Ki [3]: > 30000 nM; Ki (Stromelysin-1): > 50000 nM; Ki (Matrilysin): > 60000 nM; Ki [4]: 9000 nM; Ki (Collagenase 3): 7000 nM; Ki [5]: > 40000 nM
O=C(NCc1ccccc1)[C@H](O)[C@@H](O)C(=O)N1CCCC1c1cccc(Cl)c1 (some centres undefined) | 1440 | 
O=C(NCCc1nc(Cc2ccccc2)co1)[C@H](O)[C@@H](O)C(=O)N1CCCC1c1ccccc1 (some centres undefined) | 461 | 
O=C(NCCc1cccs1)[C@H](O)[C@@H](O)C(=O)N1CCCC1c1ccccc1 (some centres undefined) | 96 | 
